The source made the active and inactive calls.
Tests used:
[1] = cytotoxicity toward NIH3T3 fibroblasts, dose response, counter-screen, cell-based, ATP luminescence, mouse fibroblasts (AID 2010); assay type: functional;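 note: cells exposed to compound for about 90 hours before reading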
[2] = off-target signal loss in HeLa-CEM21 co-culture – HeLa F-luc CTL cells, cherry-picked, counter-screen for HIV-1 Env fusion inhibitor project, dose response (AID 652040); assay type: functional, cell-based;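 note: potency for signal decrease marking cytotoxic or nonspecific inhibition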
[3] = biological target: Mitogen-activated protein kinase kinase kinase kinase 4 (Homo sapiens, UniProt O95819); assay type: functional
Mitogen-activated protein kinase kinase kinase kinase 4, sequence (O95819 whole entry): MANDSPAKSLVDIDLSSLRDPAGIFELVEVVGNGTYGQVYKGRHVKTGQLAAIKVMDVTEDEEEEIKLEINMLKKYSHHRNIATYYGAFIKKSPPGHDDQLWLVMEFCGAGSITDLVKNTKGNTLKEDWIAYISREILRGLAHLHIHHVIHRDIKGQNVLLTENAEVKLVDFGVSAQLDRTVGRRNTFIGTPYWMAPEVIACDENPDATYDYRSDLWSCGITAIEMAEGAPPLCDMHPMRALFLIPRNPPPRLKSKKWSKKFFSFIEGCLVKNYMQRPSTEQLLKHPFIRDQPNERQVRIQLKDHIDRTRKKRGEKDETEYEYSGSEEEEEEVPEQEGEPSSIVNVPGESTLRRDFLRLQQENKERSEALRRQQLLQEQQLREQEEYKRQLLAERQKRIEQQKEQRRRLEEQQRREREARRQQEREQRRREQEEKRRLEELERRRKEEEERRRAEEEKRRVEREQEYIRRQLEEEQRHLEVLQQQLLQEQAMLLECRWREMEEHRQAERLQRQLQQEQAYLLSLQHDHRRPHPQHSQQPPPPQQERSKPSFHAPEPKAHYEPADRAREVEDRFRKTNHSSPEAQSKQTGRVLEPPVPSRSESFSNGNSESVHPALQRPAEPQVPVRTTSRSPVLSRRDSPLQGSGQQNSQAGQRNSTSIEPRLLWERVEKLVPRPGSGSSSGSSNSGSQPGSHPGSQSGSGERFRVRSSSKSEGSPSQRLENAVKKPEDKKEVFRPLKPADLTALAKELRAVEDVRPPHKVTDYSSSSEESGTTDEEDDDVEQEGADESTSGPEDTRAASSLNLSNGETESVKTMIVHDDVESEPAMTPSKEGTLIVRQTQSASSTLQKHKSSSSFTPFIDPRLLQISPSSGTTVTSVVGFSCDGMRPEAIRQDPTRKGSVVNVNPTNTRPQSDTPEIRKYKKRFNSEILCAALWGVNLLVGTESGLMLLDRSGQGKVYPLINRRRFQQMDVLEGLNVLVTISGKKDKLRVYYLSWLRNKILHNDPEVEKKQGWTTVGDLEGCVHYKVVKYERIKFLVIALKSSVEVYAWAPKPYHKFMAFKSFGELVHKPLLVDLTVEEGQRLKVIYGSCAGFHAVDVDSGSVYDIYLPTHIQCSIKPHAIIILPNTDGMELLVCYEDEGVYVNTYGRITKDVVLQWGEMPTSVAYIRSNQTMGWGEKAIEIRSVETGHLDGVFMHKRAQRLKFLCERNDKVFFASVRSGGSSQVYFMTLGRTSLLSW

[4] = biological target: Photoreceptor-specific nuclear receptor (Homo sapiens, UniProt Q9Y5X4); assay type: functional;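 note: potency for compounds that break the NR2E3 corepressor complex and count as activators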
Photoreceptor-specific nuclear receptor, sequence (Q9Y5X4 whole entry, the tested form may be a part): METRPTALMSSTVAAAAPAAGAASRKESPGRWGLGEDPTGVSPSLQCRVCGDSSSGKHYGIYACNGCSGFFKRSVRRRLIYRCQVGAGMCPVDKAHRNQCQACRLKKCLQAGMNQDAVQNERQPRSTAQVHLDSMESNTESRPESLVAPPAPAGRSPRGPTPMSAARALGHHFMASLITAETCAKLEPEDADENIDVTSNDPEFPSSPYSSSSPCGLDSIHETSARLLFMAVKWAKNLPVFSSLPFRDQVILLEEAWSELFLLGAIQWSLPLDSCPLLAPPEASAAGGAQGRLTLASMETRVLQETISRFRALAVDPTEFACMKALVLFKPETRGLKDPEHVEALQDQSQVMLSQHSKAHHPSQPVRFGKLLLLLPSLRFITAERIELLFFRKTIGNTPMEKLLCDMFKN

[5] = biological target: T1, RNA-binding protein pos-1 (Caenorhabditis elegans, UniProt G5EF15); assay: inhibitors of POS-1/mex-3 RNA binding, dose response, biochemical, fluorescence polarization (AID 1964);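 note: purified POS-1 fused to maltose binding protein made in E. coli; potency of compounds blocking POS-1 binding to fluorescent RNA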
T1 sequence (G5EF15 whole entry): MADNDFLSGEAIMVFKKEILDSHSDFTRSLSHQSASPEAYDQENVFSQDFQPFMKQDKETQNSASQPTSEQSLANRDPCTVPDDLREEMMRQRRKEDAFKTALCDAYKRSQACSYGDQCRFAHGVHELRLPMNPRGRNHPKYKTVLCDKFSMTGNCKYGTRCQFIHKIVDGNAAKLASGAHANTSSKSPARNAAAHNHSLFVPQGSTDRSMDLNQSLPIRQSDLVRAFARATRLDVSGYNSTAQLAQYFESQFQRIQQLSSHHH

[6] = biological target: T2, Zinc finger protein mex-5 (Caenorhabditis elegans, UniProt Q9XUB2); assay: MEX-5/TCR-2 RNA interaction inhibitors, dose response, biochemical, C. elegans, fluorescence polarization (AID 1960)
T2 sequence (Q9XUB2 whole entry): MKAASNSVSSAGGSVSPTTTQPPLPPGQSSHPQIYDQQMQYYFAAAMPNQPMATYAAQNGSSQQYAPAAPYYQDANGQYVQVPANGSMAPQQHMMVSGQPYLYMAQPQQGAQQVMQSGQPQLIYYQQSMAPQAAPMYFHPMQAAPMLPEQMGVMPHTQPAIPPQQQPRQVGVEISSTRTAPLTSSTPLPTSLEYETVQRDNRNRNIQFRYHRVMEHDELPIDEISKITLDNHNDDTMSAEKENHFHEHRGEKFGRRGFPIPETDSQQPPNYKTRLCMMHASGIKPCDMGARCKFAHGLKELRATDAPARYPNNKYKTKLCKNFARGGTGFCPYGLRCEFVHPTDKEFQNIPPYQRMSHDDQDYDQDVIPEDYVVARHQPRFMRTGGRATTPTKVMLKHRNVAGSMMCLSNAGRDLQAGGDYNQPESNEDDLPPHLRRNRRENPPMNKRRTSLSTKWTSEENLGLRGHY

[7] = biological target: SUMO-activating enzyme (Homo sapiens, UniProt Q9UBT2); assay: inhibitors of in vitro SUMOylation cascade, primary screen, biochemical, HTRF, uHTS (AID 2006); assay type: protein-complex assay
SUMO-activating enzyme, sequence (Q9UBE0 whole entry): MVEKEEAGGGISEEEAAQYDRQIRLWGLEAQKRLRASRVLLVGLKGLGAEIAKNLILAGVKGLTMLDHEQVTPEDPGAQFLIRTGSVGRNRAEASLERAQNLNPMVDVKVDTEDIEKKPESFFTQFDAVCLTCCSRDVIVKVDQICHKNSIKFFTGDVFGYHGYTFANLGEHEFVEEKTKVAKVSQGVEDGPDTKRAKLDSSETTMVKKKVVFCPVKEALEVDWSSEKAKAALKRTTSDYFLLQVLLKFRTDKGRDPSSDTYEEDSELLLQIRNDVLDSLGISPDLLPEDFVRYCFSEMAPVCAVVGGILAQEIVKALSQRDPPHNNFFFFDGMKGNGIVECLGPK
SUMO-activating enzyme, sequence (Q9UBT2 whole entry): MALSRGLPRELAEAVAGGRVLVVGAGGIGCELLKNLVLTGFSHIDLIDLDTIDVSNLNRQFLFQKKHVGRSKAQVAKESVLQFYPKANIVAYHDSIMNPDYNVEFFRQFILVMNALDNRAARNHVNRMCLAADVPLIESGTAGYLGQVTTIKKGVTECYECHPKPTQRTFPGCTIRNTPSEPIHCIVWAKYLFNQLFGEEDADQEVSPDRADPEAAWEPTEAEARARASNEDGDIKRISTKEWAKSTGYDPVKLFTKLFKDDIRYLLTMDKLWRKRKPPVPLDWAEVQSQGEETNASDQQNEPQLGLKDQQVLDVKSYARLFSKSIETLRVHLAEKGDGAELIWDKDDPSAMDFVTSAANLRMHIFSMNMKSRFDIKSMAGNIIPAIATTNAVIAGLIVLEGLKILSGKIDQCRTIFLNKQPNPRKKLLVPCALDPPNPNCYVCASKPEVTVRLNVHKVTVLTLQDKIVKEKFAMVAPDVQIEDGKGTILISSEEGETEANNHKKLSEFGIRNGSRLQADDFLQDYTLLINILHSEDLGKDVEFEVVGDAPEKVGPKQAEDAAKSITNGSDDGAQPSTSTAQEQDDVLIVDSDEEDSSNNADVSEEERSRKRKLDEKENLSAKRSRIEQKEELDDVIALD

[8] = biological target: Peroxisome proliferator-activated receptor gamma/Nuclear receptor corepressor 2 (Homo sapiens, UniProt P37231+Q9Y618); assay type: functional
[9] = biological target: ORF 73 (Human herpesvirus 8, UniProt O40947); assay: inhibitors of C-LANA binding to LBS DNA, dose response, biochemical, fluorescence polarization, cherry-picked samples (AID 504725); set-up: species or system Human gammaherpesvirus 8;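 note: fluorescence polarization of a labeled DNA duplex reporting LANA DNA binding; potency is for inhibitors that block LANA binding to the DNA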
[10] = biological target: T3, Alkaline phosphatase, tissue-nonspecific isozyme (Homo sapiens, UniProt P05186); assay: TNAP enzyme inhibition by screening hits, dose response, selectivity assay for mouse IAP inhibitor project, biochemical, human TNAP, uHTS hits (AID 488906); assay type: functional
T3 sequence (P05186 whole entry): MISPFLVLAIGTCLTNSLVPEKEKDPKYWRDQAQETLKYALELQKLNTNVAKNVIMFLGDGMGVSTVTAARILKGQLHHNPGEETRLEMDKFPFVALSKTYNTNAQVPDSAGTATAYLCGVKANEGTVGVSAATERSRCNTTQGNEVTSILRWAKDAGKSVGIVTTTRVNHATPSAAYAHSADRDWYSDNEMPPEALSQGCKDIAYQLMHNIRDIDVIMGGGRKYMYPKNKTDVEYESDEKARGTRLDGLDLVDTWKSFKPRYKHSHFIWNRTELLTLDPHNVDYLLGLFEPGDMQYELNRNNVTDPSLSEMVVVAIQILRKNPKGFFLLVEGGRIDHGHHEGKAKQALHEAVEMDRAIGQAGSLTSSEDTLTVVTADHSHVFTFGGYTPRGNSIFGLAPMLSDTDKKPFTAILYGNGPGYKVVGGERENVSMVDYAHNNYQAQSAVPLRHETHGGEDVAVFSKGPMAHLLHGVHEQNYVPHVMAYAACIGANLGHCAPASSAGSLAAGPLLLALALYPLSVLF

[11] = biological target: Sphingosine 1-phosphate receptor 4 (Homo sapiens, UniProt O95977); assay: Fluorescence dose response cell-based high throughput screening assay for antagonists of the Sphingosine 1-Phosphate Receptor 4 (S1P4). [Related pubchem assays: 1524 (Confirmation in triplicates.), 1510 (Primary screen.)]; assay type: functional
Sphingosine 1-phosphate receptor 4, sequence (O95977 whole entry): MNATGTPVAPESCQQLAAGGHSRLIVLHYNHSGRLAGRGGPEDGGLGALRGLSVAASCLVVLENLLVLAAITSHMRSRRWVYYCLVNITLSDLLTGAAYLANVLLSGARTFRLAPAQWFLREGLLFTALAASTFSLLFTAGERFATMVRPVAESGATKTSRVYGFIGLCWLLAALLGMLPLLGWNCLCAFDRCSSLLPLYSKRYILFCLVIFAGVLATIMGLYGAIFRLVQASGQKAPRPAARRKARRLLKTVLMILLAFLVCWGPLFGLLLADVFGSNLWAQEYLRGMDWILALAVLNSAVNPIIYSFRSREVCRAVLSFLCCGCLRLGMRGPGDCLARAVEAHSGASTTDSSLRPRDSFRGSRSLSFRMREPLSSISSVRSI

[12] = biological target: Sphingosine 1-phosphate receptor 1 (Homo sapiens, UniProt P21453); assay type: functional;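 note: Tango beta-arrestin reporter U2OS cells stimulated with S1P near its EC80; inhibitor potency meaning antagonism of receptor activation by the natural agonist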
Sphingosine 1-phosphate receptor 1, sequence (P21453 whole entry): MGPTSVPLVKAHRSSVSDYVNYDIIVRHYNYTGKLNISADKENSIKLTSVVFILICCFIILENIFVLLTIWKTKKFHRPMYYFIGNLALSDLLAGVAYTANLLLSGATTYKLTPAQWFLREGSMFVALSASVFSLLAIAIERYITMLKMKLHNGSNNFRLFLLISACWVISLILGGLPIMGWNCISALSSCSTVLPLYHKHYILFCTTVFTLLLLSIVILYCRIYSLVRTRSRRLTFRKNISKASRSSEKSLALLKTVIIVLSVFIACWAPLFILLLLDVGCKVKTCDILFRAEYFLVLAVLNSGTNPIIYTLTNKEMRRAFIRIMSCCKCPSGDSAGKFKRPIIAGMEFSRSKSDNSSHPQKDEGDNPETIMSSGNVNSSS

[13] = system: CHO-K1; assay: Counterscreen for antagonists of the orexin 1 receptor (OX1R; HCRTR1): Homogeneous time resolved fluorescence (HTRF)-based cell-based dose response assay to identify antagonists of the parental CHO-K1 cell line. [Related pubchem assays (depositor defined):AID434989, AID435008, AID463079, AID485270, AID492963, AID492964, AID492965, AID493232, AID504699, AID504701]; assay type: functional; conditions: Cricetulus griseus;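 note: potency for inhibition of ATP-stimulated IP1 production as antagonists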
[14] = Intein inhibitors as potential Tuberculosis drugs, a cytotoxicity screen. [Related pubchem assays (depositor defined):AID2221, AID2223, AID434968, AID435010, AID449749, AID449750, AID489010]; assay type: functional
[15] = biological target: Beta Lactamase (Pseudomonas aeruginosa, UniProt Q932Y6); assay: beta-lactamase reporter inhibitor potency, dose response, artefact control for TLR9-MyD88 binding inhibitor project, BLA reporter cells, FRET fluorescence (AID 588341); assay type: cell-based;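 note: cell based assay in CHO-K1 cells stably expressing beta-lactamase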
Beta Lactamase, sequence (Q932Y6 whole entry): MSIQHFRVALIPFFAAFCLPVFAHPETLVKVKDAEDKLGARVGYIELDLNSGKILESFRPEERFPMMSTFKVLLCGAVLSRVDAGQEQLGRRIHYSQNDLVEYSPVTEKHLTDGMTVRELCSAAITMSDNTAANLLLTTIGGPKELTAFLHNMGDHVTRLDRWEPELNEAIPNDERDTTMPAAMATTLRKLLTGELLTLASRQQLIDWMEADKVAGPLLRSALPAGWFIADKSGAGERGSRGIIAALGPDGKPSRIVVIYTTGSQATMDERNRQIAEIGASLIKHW

[16] = biological target: Orexin receptor type 2 (Homo sapiens, UniProt O43614); assay: Counterscreen assay for antagonists of the orexin 1 receptor (OX1R; HCRTR1): Homogeneous Time Resolved Fluorescence (HTRF)-based cell-based dose response assay for antagonists of the orexin 2 receptor (OX2R; HCRTR2), run by assay provider.; assay type: functional
Orexin receptor type 2, sequence (O43614 whole entry, the tested form may be a part): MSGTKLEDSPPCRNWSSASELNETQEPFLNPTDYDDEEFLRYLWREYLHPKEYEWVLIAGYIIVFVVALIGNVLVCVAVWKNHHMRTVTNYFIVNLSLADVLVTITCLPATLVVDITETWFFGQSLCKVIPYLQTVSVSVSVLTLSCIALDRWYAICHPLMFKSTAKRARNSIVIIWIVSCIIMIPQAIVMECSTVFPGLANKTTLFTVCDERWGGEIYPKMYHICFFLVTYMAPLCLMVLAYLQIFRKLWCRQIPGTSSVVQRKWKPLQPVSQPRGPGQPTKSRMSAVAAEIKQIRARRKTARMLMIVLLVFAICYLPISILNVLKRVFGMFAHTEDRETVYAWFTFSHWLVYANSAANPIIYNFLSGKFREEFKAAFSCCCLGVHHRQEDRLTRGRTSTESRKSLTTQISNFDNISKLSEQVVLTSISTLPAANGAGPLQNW

[17] = Fluorescence-based cell-based high throughput dose response assay for inhibitors of the interaction of nucleotide-binding oligomerization domain containing 2 (NOD2) and the receptor-interacting serine-threonine kinase 2 (RIPK2).; assay type: functional; conditions: Homo sapiens
[18] = biological target: Cyclin-dependent kinase 19 (Homo sapiens, UniProt Q9BWU1); assay: Navigating the Kinome. Panel member name: CDC2L6; assay type: functional
Cyclin-dependent kinase 19, sequence (Q9BWU1 whole entry): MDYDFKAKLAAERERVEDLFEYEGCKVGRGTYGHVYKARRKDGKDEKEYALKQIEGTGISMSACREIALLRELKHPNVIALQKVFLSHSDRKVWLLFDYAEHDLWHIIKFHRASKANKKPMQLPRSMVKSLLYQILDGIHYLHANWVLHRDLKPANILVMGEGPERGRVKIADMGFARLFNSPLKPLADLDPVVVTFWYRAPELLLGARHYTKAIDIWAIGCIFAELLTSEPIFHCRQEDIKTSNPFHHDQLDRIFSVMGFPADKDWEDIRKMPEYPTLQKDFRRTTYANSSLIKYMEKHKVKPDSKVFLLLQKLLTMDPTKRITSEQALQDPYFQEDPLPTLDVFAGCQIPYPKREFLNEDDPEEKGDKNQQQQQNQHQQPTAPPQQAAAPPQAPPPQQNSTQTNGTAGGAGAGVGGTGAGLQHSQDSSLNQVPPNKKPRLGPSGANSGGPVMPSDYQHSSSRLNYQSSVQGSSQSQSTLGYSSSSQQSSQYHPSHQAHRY
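Throughout, for CC50: cells exposed to compound for 72 hours before luminescence readout.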

For `CCCC(=O)NC(c1cccs1)c1cc(Cl)c2cccnc2c1O` (stereo not drawn), the EC50 [1] was 2.61 µM (active) and the AC50 [2] was 6.09 µM (active).
For `O=C(Nc1cccc(C2Nc3ccc4ccccc4c3C3C=CCC32)c1)c1ccc(F)cc1` (stereo not drawn), the Ki [3] was > 5.01 µM (inactive).
With `O=C(O)CC(C(=O)O)N1C(=O)/C(=C/C=C/c2ccco2)SC1=S` (stereo not drawn) the IC50 [4] was > 39.8 µM (not active), the EC50 [5] was 10.4 µM (active) and the EC50 [6] was 23.3 µM (active). For the same molecule, the IC50 [7] was 13.7 µM (active), the IC50 [8] was > 39.8 µM (not active) and the AC50 [9] was 28.9 µM (active). For the same molecule, the IC50 [10] was 91.8 µM (active).
For `Cc1ccc(C(=O)OCn2ncc(Cl)c(Cl)c2=O)cc1`, the IC50 [11] was 1.27 µM (active), the IC50 [12] was 10.6 µM (not active) and the IC50 [13] was > 66.2 µM (inactive). The CC50 [14] was 2.85 µM (active), the IC50 [15] was 48.7 µM (inactive) and the IC50 [16] was > 50 µM (inactive). The IC50 [17] was 889 nM (active).
For `Cc1ccc(-c2cc(-c3cc(Br)ccc3O)[nH]c(=O)c2C#N)s1`, the Ki [18] was > 100 µM (inactive).

From ChEMBL document CHEMBL1201862, “PubChem BioAssay data set” (2004)
